From patent US7351690B2, “Knockout identification of target-specific sites in peptides” (priority 2000, dated 2008)
Square brackets hold non-standard residues; d marks the D form. Primed or numbered codes have the meaning given here. Ends that are not written are not given here. Nle = CCCC[C@H](N)C(=O)O; dH′ = not defined here

tested on: bombesin receptor; experiment: competitive binding assay, 125I-Bombesin, rat brain membranes; conditions: not given
Protocol: Rat brain membranes were utilized as the source of bombesin receptor. The competitive binding assay was performed using a procedure as described by Moody T W, Perk C B, Rivier J, Brown, M R. (Proc Natl Acad Sci USA. 75:5372-5376, […]) and adapted to a 96 well format. An aliquot of membranes taken in assay buffer (50 mM Tris and HCl, pH 7.4 containing 1 mg/mL BSA and 2 μg/mL bacitracin) was incubated with 0.01 nM of ^125I-Bombesin with or without varying concentrations of the test compound for 60 min at 4° C. The incubation was terminated by rapid filtration of the assay mixture, followed by washing the filters with ice-cold buffer. The filters were dried and counted in a gamma counter for retained radioactivity. Non-specific binding was measured by including 1 μM Bombesin in the assay tube. The assay was performed in triplicate and results calculated to determine percentage inhibition of the ^125I-Bombesin binding to its receptors by a test compound. The parent polypeptide is shown in Table 6, with metallopeptides having Cys inserted as shown.

Substance | binding to bombesin receptor, in words
D-Phe-Gln-Cys-Ala-Val-Gly-His-Leu-Leu-NH2 ([dF]QCAVGHLL-NH2; also: oxorhenium(V) N3S1 tetradentate complex via Cys) [9-7] | least activity
D-Phe-Gln-Trp-Ala-Cys-Gly-His-Leu-Leu-NH2 ([dF]QWACGHLL-NH2; also: oxorhenium(V) N3S1 tetradentate complex via Cys) [9-5] | least activity
D-Phe-Gln-Trp-Ala-Cys-Val-Gly-His-Leu-Leu-NH2 ([dF]QWACVGHLL-NH2; also: oxorhenium(V) N3S1 chelate via Cys (Re(V)=O)) [8-6] | least activity
D-Phe-Gln-Trp-Ala-Val-Cys-NH2 ([dF]QWAVC-NH2; also: oxorhenium(V) N3S1 chelate via Cys (Re(V)=O)) [11-3] | high negative percent inhibition
D-Phe-Gln-Trp-Cys-Ala-Val-Gly-His-Leu-Leu-NH2 ([dF]QWCAVGHLL-NH2; also: rhenium complex (oxorhenium(V) N3S1 chelate via Cys)) [8-7] | least activity
Gln-Trp-Ala-Val-Cys-NH2 (QWAVC-NH2; not fully specified (bridges); printed as Gln-Trp-Ala-Val-Cys-NH2; also: oxorhenium(V) N3S1 chelate (Re(V)=O)) [11-13] | high negative percent inhibition

same assay, conditions: inhibition of 0.01 nM 125I-Bombesin binding; rat brain membranes; test concentration not given

Substance | % Inhibition [%]
Ac-Ala-Gln-Cys-Arg-Leu-Gly-Asn-Gln-Trp-Ala-Val-Gly-His-Leu-Nle-NH2 (Ac-AQCRLGNQWAVGHL[Nle]-NH2; also: oxorhenium(V) N3S1 tetradentate complex via Cys) [6-13] | 99
Ac-Ala-Gln-Cys-Leu-Gly-Asn-Gln-Trp-Ala-Val-Gly-His-Leu-Nle-NH2 (Ac-AQCLGNQWAVGHL[Nle]-NH2; also: oxorhenium(V) N3S1 tetradentate complex via Cys) [7-12] | 96
Ala-Val-Cys-His-Leu-Leu-NH2 (AVCHLL-NH2; not fully specified (bridges); printed as Ala-Val-Cys-His-Leu-Leu-NH2; also: oxorhenium(V) N3S1 chelate (Re(V)=O)) [11-6] | 6
Ala-Val-Cys-His-Leu-NH2 (AVCHL-NH2; not fully specified (bridges); printed as Ala-Val-Cys-His-Leu-NH2; also: oxorhenium(V) N3S1 chelate (Re(V)=O)) [11-9] | 7
Ala-Val-Cys-His-NH2 (AVCH-NH2; not fully specified (bridges); printed as Ala-Val-Cys-His-NH2; also: oxorhenium(V) N3S1 chelate (Re(V)=O)) [11-12] | 5
Ala-Val-Cys-NH2 (not fully specified (bridges); printed as Ala-Val-Cys-NH2; also: oxorhenium(V) N3S1 chelate (Re(V)=O)) [11-15] | 4
D-Phe-Gln-Cys-Ala-Val-Gly-His-Leu-Leu-NH2 ([dF]QCAVGHLL-NH2; also: oxorhenium(V) N3S1 tetradentate complex via Cys) [9-7] | 19
D-Phe-Gln-Cys-Trp-Ala-Val-Gly-His-Leu-Leu-NH2 ([dF]QCWAVGHLL-NH2; also: oxorhenium(V) N3S1 tetradentate complex via Cys) [8-8] | 62
D-Phe-Gln-D-Trp-Ala-Val-Cys-His-Leu-Leu-NH2 ([dF]Q[dW]AVCHLL-NH2; numbers in words are those of the source; also: oxorhenium(V) N3S1 tetradentate complex via Cys) [10-5] | 6
D-Phe-Gln-Trp-Ala-Cys-Gly-His-Leu-Leu-NH2 ([dF]QWACGHLL-NH2; also: oxorhenium(V) N3S1 tetradentate complex via Cys) [9-5] | 17
D-Phe-Gln-Trp-Ala-Cys-Val-Gly-His-Leu-Leu-NH2 ([dF]QWACVGHLL-NH2; also: oxorhenium(V) N3S1 chelate via Cys (Re(V)=O)) [8-6] | 35
D-Phe-Gln-Trp-Ala-Cys-Val-His-Leu-Leu-NH2 ([dF]QWACVHLL-NH2; also: rhenium complex (oxorhenium(V) N3S1 chelate via Cys)) [12-2] | 3
D-Phe-Gln-Trp-Ala-Val-Cys-D-His-Leu-Leu-NH2 ([dF]QWAVC[dH′]LL-NH2; also: oxorhenium(V) N3S1 chelate via Cys (Re(V)=O)) [10-1] | 10
D-Phe-Gln-Trp-Ala-Val-Cys-Gly-His-Leu-Leu-NH2 ([dF]QWAVCGHLL-NH2; also: oxorhenium(V) N3S1 chelate via Cys (Re(V)=O)) [8-5] | 70
D-Phe-Gln-Trp-Ala-Val-Cys-His-Leu-Leu-NH2 ([dF]QWAVCHLL-NH2; also: Re metal complex (oxorhenium(V) N3S1 chelate via Cys)) [9-4] | 75
D-Phe-Gln-Trp-Ala-Val-Cys-His-Leu-NH2 ([dF]QWAVCHL-NH2; also: oxorhenium(V) N3S1 chelate via Cys (Re(V)=O)) [11-1] | 98
D-Phe-Gln-Trp-Ala-Val-Cys-His-NH2 ([dF]QWAVCH-NH2; also: oxorhenium(V) N3S1 chelate via Cys (Re(V)=O)) [11-2] | 25
D-Phe-Gln-Trp-Ala-Val-Cys-NH2 ([dF]QWAVC-NH2; also: oxorhenium(V) N3S1 chelate via Cys (Re(V)=O)) [11-3] | −81
D-Phe-Gln-Trp-Ala-Val-D-Cys-His-Leu-Leu-NH2 (chain 1 [dF]QWAV; chain 2 [dC]HLL-NH2; not fully specified (bridges); also: chain 2 continues chain 1 in one peptide (Val-D-Cys bond), Re-peptide (rhenium complex)) [10-2] | 64

Substance | % Inhibition [%]
D-Phe-Gln-Trp-Ala-Val-Gly-Cys-His-Leu-Leu-NH2 ([dF]QWAVGCHLL-NH2; also: oxorhenium(V) N3S1 chelate via Cys (Re(V)=O)) [8-4] | 59
D-Phe-Gln-Trp-Ala-Val-Gly-Cys-Leu-Leu-NH2 ([dF]QWAVGCLL-NH2; also: oxorhenium(V) N3S1 chelate via Cys (Re(V)=O)) [9-3] | 70
D-Phe-Gln-Trp-Ala-Val-Gly-His-Cys-Leu-Leu-NH2 ([dF]QWAVGHCLL-NH2; also: rhenium complex (oxorhenium(V) N3S1 chelate via Cys)) [8-3] | 49
D-Phe-Gln-Trp-Ala-Val-Gly-His-Cys-Leu-NH2 ([dF]QWAVGHCL-NH2; also: rhenium complex (oxorhenium(V) N3S1 chelate via Cys)) [9-2] | 35
D-Phe-Gln-Trp-Ala-Val-Gly-His-Leu-Cys-Leu-NH2 ([dF]QWAVGHLCL-NH2; also: rhenium complex (oxorhenium(V) N3S1 chelate via Cys)) [8-2] | 75
D-Phe-Gln-Trp-Ala-Val-Gly-His-Leu-Cys-NH2 ([dF]QWAVGHLC-NH2; also: rhenium complex (oxorhenium(V) N3S1 chelate via Cys)) [9-1] | 86
D-Phe-Gln-Trp-Ala-Val-Gly-His-Leu-Leu-Cys-NH2 ([dF]QWAVGHLLC-NH2; also: rhenium complex (oxorhenium(V) N3S1 chelate via Cys)) [8-1] | 39
D-Phe-Gln-Trp-Cys-Ala-Val-Gly-His-Leu-Leu-NH2 ([dF]QWCAVGHLL-NH2; also: rhenium complex (oxorhenium(V) N3S1 chelate via Cys)) [8-7] | 8
D-Phe-Gln-Trp-Cys-Val-Gly-His-Leu-Leu-NH2 ([dF]QWCVGHLL-NH2; also: oxorhenium(V) N3S1 chelate complex (Re=O)) [9-6] | 43
D-Phe-Gln-Trp-Cys-Val-His-Leu-Leu-NH2 ([dF]QWCVHLL-NH2; not fully specified (bridges); printed as D-Phe-Gln-Trp-Cys-Val-His-Leu-Leu-NH2; also: oxorhenium(V) N3S1 chelate complex (Re=O)) [12-6] | 10
D-Phe-Gln-Trp-D-Ala-Val-Cys-His-Leu-Leu-NH2 ([dF]QW[dA]VCHLL-NH2; numbers in words are those of the source; also: oxorhenium(V) N3S1 chelate complex (Re=O)) [10-4] | 2
D-Phe-Gln-Trp-Val-Cys-Gly-His-Leu-Leu-NH2 ([dF]QWVCGHLL-NH2; also: oxorhenium(V) N3S1 chelate complex (Re=O)) [12-1] | 2
D-Phe-Gln-Trp-Val-Cys-His-Leu-Leu-NH2 ([dF]QWVCHLL-NH2; also: oxorhenium(V) N3S1 chelate complex (Re=O)) [12-4] | 5
D-Phe-Gln-Trp-Val-Cys-Val-His-Leu-Leu-NH2 ([dF]QWVCVHLL-NH2; not fully specified (bridges); printed as D-Phe-Gln-Trp-Val-Cys-Val-His-Leu-Leu-NH2; also: oxorhenium(V) N3S1 chelate complex (Re=O)) [12-3] | 14
Gln-Trp-Ala-Val-Cys-His-Leu-Leu-NH2 [11-4] (QWAVCHLL-NH2; not fully specified (bridges); printed as Gln-Trp-Ala-Val-Cys-His-Leu-Leu-NH2; also: oxorhenium(V) N3S1 chelate (Re(V)=O)) | 25
Gln-Trp-Ala-Val-Cys-His-Leu-Leu-NH2 [11-7] (QWAVCHLL-NH2; not fully specified (bridges); printed as Gln-Trp-Ala-Val-Cys-His-Leu-Leu-NH2; also: oxorhenium(V) N3S1 chelate (Re(V)=O)) | 5
Gln-Trp-Ala-Val-Cys-NH2 (QWAVC-NH2; not fully specified (bridges); printed as Gln-Trp-Ala-Val-Cys-NH2; also: oxorhenium(V) N3S1 chelate (Re(V)=O)) [11-13] | −50
Pyr-Gln-Arg-Cys-Gly-Asn-Gln-Trp-Ala-Val-Gly-His-Leu-Nle-NH2 (QRCGNQWAVGHL; N-term pyroglutamate; Nle-NH2; rhenium complex; printed: Gln-Arg-Cys-Gly-Asn-Gln-Trp-Ala-Val-Gly-His-Leu-) [7-11] | 95
